Here are results for 33 compounds from EP4778924A1 (Huons Co., Ltd., priority 2023, dated 2025).

A word on the IC50: it is the concentration at which inhibition is half-maximal. Low values mean greater potency in that assay, high ones weaker potency in that assay.

Counter-ions that a name gives are not always drawn.

For one assay, the target named is T1, Proton Pump (H^+,K^+-ATPase) (Sus scrofa, UniProt P19156).
T1 construct: gastric vesicles were isolated from porcine stomachs; from tissue; host or cells: porcine stomach (gastric vesicles)
T1 sequence (P19156 2-1034 limits assumed): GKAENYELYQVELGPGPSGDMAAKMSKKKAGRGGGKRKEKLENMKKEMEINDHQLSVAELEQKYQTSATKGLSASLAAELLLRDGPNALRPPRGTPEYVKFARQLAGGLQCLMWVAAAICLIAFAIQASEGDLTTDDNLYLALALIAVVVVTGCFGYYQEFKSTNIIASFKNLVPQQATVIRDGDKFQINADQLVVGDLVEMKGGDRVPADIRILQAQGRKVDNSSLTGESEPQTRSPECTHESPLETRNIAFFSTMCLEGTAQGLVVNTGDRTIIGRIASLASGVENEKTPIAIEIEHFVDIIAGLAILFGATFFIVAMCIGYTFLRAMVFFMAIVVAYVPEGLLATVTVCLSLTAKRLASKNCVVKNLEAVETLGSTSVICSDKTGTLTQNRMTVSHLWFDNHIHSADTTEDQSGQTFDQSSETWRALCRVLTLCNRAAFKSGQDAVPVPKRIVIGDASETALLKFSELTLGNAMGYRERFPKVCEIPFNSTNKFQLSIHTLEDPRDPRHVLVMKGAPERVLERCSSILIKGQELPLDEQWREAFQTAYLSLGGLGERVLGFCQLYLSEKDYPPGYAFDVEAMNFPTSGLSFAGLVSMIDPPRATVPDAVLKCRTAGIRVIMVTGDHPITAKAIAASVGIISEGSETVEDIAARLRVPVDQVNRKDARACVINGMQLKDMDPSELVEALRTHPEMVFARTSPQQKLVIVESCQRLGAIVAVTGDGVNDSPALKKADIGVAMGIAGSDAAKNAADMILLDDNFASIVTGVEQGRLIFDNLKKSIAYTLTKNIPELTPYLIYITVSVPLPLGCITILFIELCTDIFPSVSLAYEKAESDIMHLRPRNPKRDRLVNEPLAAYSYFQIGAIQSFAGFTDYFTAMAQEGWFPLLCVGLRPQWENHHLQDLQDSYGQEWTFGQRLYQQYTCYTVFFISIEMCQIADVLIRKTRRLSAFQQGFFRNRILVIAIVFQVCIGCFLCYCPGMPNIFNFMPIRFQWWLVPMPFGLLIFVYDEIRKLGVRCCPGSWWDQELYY
T1 sequence (P18434 whole entry partner): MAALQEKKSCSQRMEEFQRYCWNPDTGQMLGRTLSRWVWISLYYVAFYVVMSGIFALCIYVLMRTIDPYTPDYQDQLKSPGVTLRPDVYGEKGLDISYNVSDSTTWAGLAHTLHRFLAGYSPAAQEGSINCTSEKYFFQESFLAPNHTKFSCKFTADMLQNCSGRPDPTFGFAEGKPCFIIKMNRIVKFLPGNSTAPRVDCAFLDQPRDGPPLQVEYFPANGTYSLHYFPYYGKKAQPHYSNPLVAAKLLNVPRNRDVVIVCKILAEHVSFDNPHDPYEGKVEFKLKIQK
The assay can be described thus: Inhibitory activity on proton pump (H+,K+-ATPase) activity, porcine gastric vesicles, malachite green readout. Type of assay: biochemical. Particulars: porcine gastric vesicles, pH 6.5, 8 mM KCl, 0.2 mM ATP. As for the experimental part:
Specifically, gastric vesicles were isolated from porcine stomachs, and the protein content of the vesicles was quantified using a BSA kit (Bio-Rad, 5000205). All reactions were performed in 96-well plates with a reaction volume of […] containing 100 ng of vesicles. 10 mM valinomycin and the test compound were added to reaction buffer (50 mM Tris-HEPES, 5 mM MgCl2, 8 mM KCl, pH 6.5) containing porcine gastric vesicles at various concentrations, and the mixture was incubated at 37°C for 30 minutes. DMSO or test compounds at different concentrations were added after diluting them to a final DMSO concentration of 0.1%. 0.2 mM adenosine triphosphate (ATP) was then added to the reaction buffer and incubated at 37°C for 20 minutes. The reaction was stopped with 0.2% Tween 20, followed by the addition of malachite green (Sigma Aldrich, MAK307) and incubation at room temperature for 30 minutes. The optical density (OD) value was measured at 620 nm using a microplate reader (Spectramax M5e, Molecular devices). The percent (%) inhibition was derived from the OD values of the control group and various concentrations of the test compounds. The IC50 of the test compounds was analyzed using nonlinear regression using the GraphPad Prism8 program using the % inhibition value at each concentration.
Turning to `Cc1cccc(C)c1CNc1cc(Br)cn2c(C)c(C)nc12` [Comparative Example 1, reference compound], the IC50 lay in the range of 100 to 500 nM. `COC(=O)c1cc(NCc2c(C)cccc2C)c2nc(C)c(C)n2c1` [Comparative Example 2, reference compound] returned an IC50 above 500 nM. With `Cc1cccc(C)c1CNc1cc(NC(=O)C2CCCC2)cn2c(C)c(C)nc12` [Example 1, N-(8-((2,6-dimethylbenzyl)amino)-2,3-dimethylimidazo[1,2-a]pyridin-6-yl)cyclopentanecarboxamide], the IC50 was in the range of 100 to 500 nM.

For `Cc1cccc(C)c1CNc1cc(NC(=O)C2CC2)cn2c(C)c(C)nc12` [Example 2, N-(8-((2,6-dimethylbenzyl)amino)-2,3-dimethylimidazo[1,2-a]pyridin-6-yl)cyclopropanecarboxamide], the IC50 was in the range of 100 to 500 nM. Still for that read-out and setting: in the case of `Cc1cccc(C)c1CNc1cc(NC(=O)C2CCCCC2)cn2c(C)c(C)nc12` [Example 3, N-(8-((2,6-dimethylbenzyl)amino)-2,3-dimethylimidazo[1,2-a]pyridin-6-yl)cyclohexanecarboxamide] it was above 500 nM. Still for that read-out and setting: in the case of `Cc1cccc(C)c1CNc1cc(NC(=O)C2CCC2)cn2c(C)c(C)nc12` [Example 5, N-(8-((2,6-dimethylbenzyl)amino)-2,3-dimethylimidazo[1,2-a]pyridin-6-yl)cyclobutanecarboxamide] it was 100 to 500 nM; in that of `Cc1cccc(C)c1CNc1cc(NC(=O)N2CCC2)cn2c(C)c(C)nc12` [Example 6, N-(8-((2,6-dimethylbenzyl)amino)-2,3-dimethylimidazo[1,2-a]pyridin-6-yl)azetidine-1-carboxamide], 50 to 100 nM.

As for `Cc1cccc(C)c1CNc1cc(NC(=O)C(C)C)cn2c(C)c(C)nc12` [Example 7, N-(8-((2,6-dimethylbenzyl)amino)-2,3-dimethylimidazo[1,2-a]pyridin-6-yl)isobutyramide], the 50% inhibitory concentration (IC50) is 100 to 500 nM.

Turning to `Cc1cccc(C)c1CNc1cc(NC(=O)C(C)(C)C)cn2c(C)c(C)nc12` [Example 8, N-(8-((2,6-dimethylbenzyl)amino)-2,3-dimethylimidazo[1,2-a]pyridin-6-yl)pivalamide], the IC50 was above 500 nM. Still for that read-out and setting: then `Cc1cccc(C)c1CNc1cc(NC(=O)C(F)F)cn2c(C)c(C)nc12` [Example 9, N-(8-((2,6-dimethylbenzyl)amino)-2,3-dimethylimidazo [1,2-a]pyridin-6-yl)-2,2-difluoroacetamide], with above 500 nM; and `Cc1cccc(C)c1CNc1cc(NC(=O)CN)cn2c(C)c(C)nc12.Cl` [Example 10, 2-amino-N-(8-((2,6-dimethylbenzyl)amino)-2,3-dimethylimidazo[1,2-a]pyridin-6-yl)acetamide hydrochloride], with below 50 nM; and `Cc1cccc(C)c1CNc1cc(NC(=O)N2CCCC2)cn2c(C)c(C)nc12` [Example 11, N-(8-((2,6-dimethylbenzyl)amino)-2,3-dimethylimidazo[1,2-a]pyridin-6-yl)pyrrolidine-1-carboxamide], with 100 to 500 nM. On the same count and under the same terms, in the case of `Cc1cccc(C)c1CNc1cc(NC(=O)C23CC(C2)C3)cn2c(C)c(C)nc12` [Example 12, N-(8-((2,6-dimethylbenzyl)amino)-2,3-dimethylimidazo[1,2-a]pyridin-6-yl)bicyclo[1.1.1]pentane-1-carboxamide] it was 100 to 500 nM. Still for that read-out and setting: then `CCC(=O)Nc1cc(NCc2c(C)cccc2C)c2nc(C)c(C)n2c1` [Example 13, N-(8-((2,6-dimethylbenzyl)amino)-2,3-dimethylimidazo[1,2-a]pyridin-6-yl)propionamide], with 50 to 100 nM; and `Cc1cccc(C)c1CNc1cc(NC(=O)c2ncco2)cn2c(C)c(C)nc12` [Example 14, N-(8-((2,6-dimethylbenzyl)amino)-2,3-dimethylimidazo[1,2-a]pyridin-6-yl)oxazole-2-carboxamide], with 100 to 500 nM.

With `Cc1cccc(C)c1CNc1cc(NC(=O)C(C)(F)F)cn2c(C)c(C)nc12` [Example 16, N-(8-((2,6-dimethylbenzyl)amino)-2,3-dimethylimidazo[1,2-a]pyridin-6-yl)-2,2-difluoropropanamide], the IC50 was 100 to 500 nM. The same measure, in the same setting: in the case of `Cc1cccc(C)c1CNc1cc(NC(=O)C2CC(F)C2)cn2c(C)c(C)nc12` (centres unmarked) [Example 17, N-(8-((2,6-dimethylbenzyl)amino)-2,3-dimethylimidazo[1,2-a]pyridin-6-yl)-3-fluorocyclobutane-1-carboxamide] it was 100 to 500 nM; in that of `Cc1cccc(C)c1CNc1cc(NS(=O)(=O)C2CCC2)cn2c(C)c(C)nc12` [Example 18, N-(8-((2,6-dimethylbenzyl)amino)-2,3-dimethylimidazo[1,2-a]pyridin-6-yl)cyclobutanesulfonamide], above 500 nM; in that of `Cc1cccc(C)c1CNc1cc(NC(=O)[C@H](C)N)cn2c(C)c(C)nc12` [Example 19, (S)-2-amino-N-(8-((2,6-dimethylbenzyl)amino)-2,3-dimethylimidazo[1,2-a]pyridin-6-yl)propanamide hydrochloride], 50 to 100 nM.

Compound `Cc1cccc(C)c1CNc1cc(NC(=O)[C@@H](C)N)cn2c(C)c(C)nc12` [Example 20, (R)-2-amino-N-(8-((2,6-dimethylbenzyl)amino)-2,3-dimethylimidazo[1,2-a]pyridin-6-yl)propanamide hydrochloride] returned an IC50 of 50 to 100 nM. Same read-out and setting: then `CCNC(=O)Nc1cc(NCc2c(C)cccc2C)c2nc(C)c(C)n2c1` [Example 22, 1-(8-((2,6-dimethylbenzyl)amino)-2,3-dimethylimidazo[1,2-a]pyridin-6-yl)-3-ethylurea], with 50 to 100 nM; and `Cc1cccc(C)c1CNc1cc(NC(=O)NC2CCC2)cn2c(C)c(C)nc12` [Example 23, 1-cyclobutyl-3-(8-((2,6-dimethylbenzyl)amino)-2,3-dimethylimidazo[1,2-a]pyridin-6-yl)urea hydrochloride], with 50 to 100 nM; and `Cc1cccc(C)c1CNc1cc(NC(=O)NC2CC2)cn2c(C)c(C)nc12.Cl` [Example 24, 1-cyclopropyl-3-(8-((2,6-dimethylbenzyl)amino)-2,3-dimethylimidazo[1,2-a]pyridin-6-yl)urea hydrochloride], with below 50 nM. Still for that read-out and setting: in the case of `CC(=O)OCC(=O)Nc1cc(NCc2c(C)cccc2C)c2nc(C)c(C)n2c1` [Example 25, 2-((8-((2,6-dimethylbenzyl)amino)-2,3-dimethylimidazo[1,2-a]pyridin-6-yl)amino)-2-oxoethyl acetate] it was 100 to 500 nM; in that of `Cc1cccc(C)c1CNc1cc(NC(=O)C(C)(C)N)cn2c(C)c(C)nc12` [Example 27, 2-amino-N-(8-((2,6-dimethylbenzyl)amino)-2,3-dimethylimidazo[1,2-a]pyridin-6-yl)-2-methylpropanamide hydrochloride], 50 to 100 nM; in that of `Cc1cccc(C)c1CNc1cc(N2CCC2=O)cn2c(C)c(C)nc12` [Example 28, 1-(8-((2,6-dimethylbenzyl)amino)-2,3-dimethylimidazo[1,2-a]pyridin-6-yl)azetidin-2-one], above 500 nM.

As for `Cc1cccc(C)c1CNc1cc(NC(=O)NC23CC(C2)C3)cn2c(C)c(C)nc12` [Example 29, 1-(bicyclo[1.1.1]pentan-1-yl)-3-(8-((2,6-dimethylbenzyl)amino)-2,3-dimethylimidazo[1,2-a]pyridin-6-yl)urea hydrochloride], the IC50 is above 500 nM.

Consider `Cc1cccc(C)c1CNc1cc(NC(=O)NCC2CC2)cn2c(C)c(C)nc12` [Example 30, 1-(cyclopropylmethyl)-3-(8-((2,6-dimethylbenzyl)amino)-2,3-dimethylimidazo[1,2-a]pyridin-6-yl)urea hydrochloride], for which the IC50 is 100 to 500 nM.

Take `Cc1cccc(C)c1CNc1cc(NC(=O)NC(C)C)cn2c(C)c(C)nc12` [Example 31, 1-(8-((2,6-dimethylbenzyl)amino)-2,3-dimethylimidazo[1,2-a]pyridin-6-yl)-3-isopropylurea hydrochloride]: the IC50 is 100 to 500 nM. With `CCN(C)C(=O)Nc1cc(NCc2c(C)cccc2C)c2nc(C)c(C)n2c1` [Example 32, 3-(8-((2,6-dimethylbenzyl)amino)-2,3-dimethylimidazo[1,2-a]pyridin-6-yl)-1-ethyl-1-methylurea hydrochloride], the IC50 was 50 to 100 nM. The same measure, in the same setting: then `CNC(=O)Nc1cc(NCc2c(C)cccc2C)c2nc(C)c(C)n2c1` [Example 33, hydrochloride], with below 50 nM. On the same count and under the same terms, in the case of `CCOC(=O)CC(=O)Nc1cc(NCc2c(C)cccc2C)c2nc(C)c(C)n2c1` [Example 34, ethyl 3-((8-((2,6-dimethylbenzyl)amino)-2,3-dimethylimidazo[1,2-a]pyridin-6-yl)amino)-3-oxopropanoate] it was above 500 nM. Same read-out and setting: then `Cc1cccc(C)c1CNc1cc(NC(=O)[C@@H]2CCN2)cn2c(C)c(C)nc12` [Example 35, (S)-N-(8-((2,6-dimethylbenzyl)amino)-2,3-dimethylimidazo[1,2-a]pyridin-6-yl)azetidine-2-carboxamide hydrochloride], with 50 to 100 nM.

Staying with this assay, now noted: result in words.
With `Cc1cccc(C)c1CNc1cc(Br)cn2c(C)c(C)nc12` [Comparative Example 1, reference compound], the “inhibitory activity against proton pump activity” value (from here on “inhibitory activity”) is “weak inhibitory activity”. Turning to `COC(=O)c1cc(NCc2c(C)cccc2C)c2nc(C)c(C)n2c1` [Comparative Example 2, reference compound], the “inhibitory activity” value was “weak inhibitory activity”.

`Cc1cccc(C)c1CNc1cc(NC(=O)CN)cn2c(C)c(C)nc12.Cl` [Example 10, 2-amino-N-(8-((2,6-dimethylbenzyl)amino)-2,3-dimethylimidazo[1,2-a]pyridin-6-yl)acetamide hydrochloride]: the “inhibitory activity” value is reported as “excellent inhibitory properties”.

In the case of `Cc1cccc(C)c1CNc1cc(NC(=O)NC2CC2)cn2c(C)c(C)nc12.Cl` [Example 24, 1-cyclopropyl-3-(8-((2,6-dimethylbenzyl)amino)-2,3-dimethylimidazo[1,2-a]pyridin-6-yl)urea hydrochloride], the “inhibitory activity” value was “excellent inhibitory properties”.

Turning to `CNC(=O)Nc1cc(NCc2c(C)cccc2C)c2nc(C)c(C)n2c1` [Example 33, hydrochloride], the “inhibitory activity” value is listed as “excellent inhibitory properties”.
